How the values were obtained:
[1] = transchelation experiments with ^111In^3+ labelled chelators, DTPA as competing ligand; assay type: physicochemical; settings: ^111In labelled, after 24 hours
Method: (§1) The chelators defined by compounds 8 and 15 in FIG. 1 and as described, supra, were tested in transchelation experiments, using ^111In^3+, and ^67Ga^3+, using the known chelator DTPA as a competing ligand. Labelling was carried out using standard methods.

[2] = transchelation experiments with ^67Ga^3+ labelled chelators, DTPA as competing ligand; assay type: physicochemical; settings: ^67Ga labelled, after 10 days
Method: as §1
Labelled TAME-HexA was 94% intact after 10 days, and 99% of the labelled TAME-HexB was stable after the same period of time.

In the case of `O=C(O)CN(CC(=O)O)CC(CN(CC(=O)O)CC(=O)O)(CN(CC(=O)O)CC(=O)O)CN(Cc1ccccc1)Cc1ccccc1` [Compound 15, 2-[Bis(carboxymethylamino)methyl]-2-[(dibenzylamino)methyl]-propylene-1,3-dinitrilotetraacetic acid], the labelled material intact [1] is reported as “about 10%” and the “labelled chelator intact / stable” value [2] is reported as 99%.

From patent publication US20100324319A1, “Tame based chelators and uses thereof” (priority 2003, published 2010)
